From paper PMC6611404 (Frontiers in Aging Neuroscience, 2019)
“Also recorded” adds a separate entry of the source. Counter-ions that a name gives are not always drawn.

Legend:
[1] = tested on: mice; experiment: CNS-activity and acute toxicity test; details: mice, intraperitoneal
Method: (§1) Adult male NMRI mice (3 months old, weighing 35–40 g) from Janvier labs (Le Genest-Saint-Isle, France) were used to perform experiments. Mice were housed by ten in standard polycarbonate cages in standard controlled conditions (22 ± 2°C, 55 ± 10% humidity) with a reversed 12 h light/dark cycle (light on at 7 pm). Food and water were available ad libitum in the home cage.
(§2) The approximate DL50 of the compounds were also calculated through the quantification of mortality after 24 h. Amphetamine (2 mg/kg), chlorpromazine (10 mg/kg) were used as a stimulant and depressive references, respectively.
(§3) Amphetamine, (+)-α-Methylphenethylamine hemisulfate, chlorpromazine hydrochloride, imipramine hydrochloride and scopolamine hydrobromide were purchased from Sigma (France). All those pharmacological compounds were dissolved in NaCl 0.9% as the vehicle were administered IP 30 min before tests, except scopolamine which was subcutaneously administered 20 min before spontaneous alternation test.

[2] = biological target: T1, human 5-HT6 receptors (Homo sapiens, UniProt P50406); experiment: [3H]-LSD competition binding on membranes of HEK-293 cells expressing human 5-HT6 receptors
T1 construct: purchased Perkin Elmer RBHS6M; host or cells: HEK-293 cells, transient expression (membranes)
T1 sequence (P50406 whole entry): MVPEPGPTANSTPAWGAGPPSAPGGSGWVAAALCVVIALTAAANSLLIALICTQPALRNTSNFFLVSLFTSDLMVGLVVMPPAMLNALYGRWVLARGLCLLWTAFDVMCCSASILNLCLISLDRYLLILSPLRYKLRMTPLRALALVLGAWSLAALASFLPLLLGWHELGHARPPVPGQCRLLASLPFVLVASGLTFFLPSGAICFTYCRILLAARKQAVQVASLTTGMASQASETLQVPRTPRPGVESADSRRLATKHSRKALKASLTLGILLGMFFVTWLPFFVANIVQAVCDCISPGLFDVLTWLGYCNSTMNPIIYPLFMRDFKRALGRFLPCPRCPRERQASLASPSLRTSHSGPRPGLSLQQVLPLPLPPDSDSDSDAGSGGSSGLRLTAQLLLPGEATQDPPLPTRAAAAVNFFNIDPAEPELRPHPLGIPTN
Method: Drugs were evaluated through their possibility to compete for the binding of [^3H]-LSD on membranes of HEK-293 cells transiently expressing the human 5-HT6 receptors (ref. RBHS6M, Perkin Elmer). […] At the end of the incubation, the homogenates were then filtered through Whatman GF/C filters and washed five times with ice-cold 25 mM Tris-HCl buffer. Non-specific binding was evaluated in the presence of 100 μM serotonin. Radioactivity associated to proteins was then quantified and expressed as the percentage of inhibition of the drugs under study.
(§4) For some of these compounds, affinity constants were calculated from five-point inhibition curves using the GraphPad Prism 6 software and expressed as Ki ± SD.

[3] = biological target: T2, (h)5-HT6R (Homo sapiens, UniProt P50406); experiment: Blockade of the 5-HT6R-induced cAMP production in transfected COS-7 cells; assay type: cell-based; details: for (h)5-HT6R % control antagonist response: SB271046 as control 5-HT6R antagonist, n = 2
T2 construct: HA; expressed in transfected cells; host or cells: COS-7 cells, transient electroporation
T2 sequence (P50406 whole entry): as above
Method: (§5) COS-7 cells were grown in Dulbecco’s modified Eagle medium (DMEM) supplemented with 10% dialyzed fetal calf serum (dFCS) and antibiotics. Cells were transiently transfected by electroporation with plasmids encoding HA-tagged 5-HT4R (100 ng/10^6 cells) or HA-tagged 5-HT6R (70 ng/10^6 cells or 300 ng/10^6 cells), then seeded in 96-well plates (16,000 cells/well).
Blockade of the 5-HT6R-induced cAMP production: 24 h after transfection, cells were exposed to the indicated concentrations of 5-HT6R ligands at 37°C in 50 μL of HBS. […] After 10 min at 37°C, cells were then lysed by addition of 100 μL of Triton-X100 (0.1%).
(§6) Quantification of cAMP production was performed by HTRF® by using the cAMP Dynamic kit (Cisbio Bioassays) according to the manufacturer’s instructions.

[4] = biological target: T2, (h)5-HT6R; experiment: Reversion of the basal 5-HT6R-induced cAMP production (constitutive activity) in COS-7 cells; assay type: cell-based; details: for cAMP production in the absence of agonist (inverse agonist activity): 10^−4M, absence of 5-HT; for (h)5-HT6R Profile: cAMP
Method: as §5
Reversion of the basal 5-HT6R-induced cAMP production: the 5-HT6R expression was augmented by transfection of higher quantities of cDNA (300 ng/10^6 cells) to increase the basal cAMP production linked to the constitutive activity of the receptor. […] This experiment is performed in the absence of 5-HT. After 10 min at 37°C, cells were then lysed by addition of 100 μL of Triton-X100 (0.1%).
as §6

[5] = biological target: T3, AChE from human erythrocytes (Homo sapiens, UniProt P22303); experiment: biochemical; details: n = 2; read-out: (h)AChE IC50
T3 construct: AChE from human erythrocytes; purchased Sigma Aldrich; host or cells: human erythrocytes (natural source)
T3 sequence (P22303 other isoform, or with tags, fused parts or gaps): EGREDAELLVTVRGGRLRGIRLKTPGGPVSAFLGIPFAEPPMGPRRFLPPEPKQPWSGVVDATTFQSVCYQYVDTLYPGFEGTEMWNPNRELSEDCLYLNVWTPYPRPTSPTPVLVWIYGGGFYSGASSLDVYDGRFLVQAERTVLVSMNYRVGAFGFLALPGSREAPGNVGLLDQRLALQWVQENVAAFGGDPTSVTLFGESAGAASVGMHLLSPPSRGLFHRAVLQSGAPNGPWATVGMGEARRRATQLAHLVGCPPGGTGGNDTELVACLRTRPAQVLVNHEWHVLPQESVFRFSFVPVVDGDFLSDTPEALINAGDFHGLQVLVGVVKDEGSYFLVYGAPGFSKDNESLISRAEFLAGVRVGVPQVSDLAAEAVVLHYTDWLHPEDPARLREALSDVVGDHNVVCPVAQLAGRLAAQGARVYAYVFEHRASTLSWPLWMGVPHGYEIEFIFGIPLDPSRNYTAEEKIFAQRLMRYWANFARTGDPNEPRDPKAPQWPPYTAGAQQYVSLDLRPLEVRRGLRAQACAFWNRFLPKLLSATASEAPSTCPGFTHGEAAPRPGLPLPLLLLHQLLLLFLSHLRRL
Method: Acetylthiocholine iodide and 5,5-dithiobis-(2-nitrobenzoic) acid (DTNB) were purchased from Sigma Aldrich. AChE from human erythrocytes (buffered aqueous solution, ≥500 units/mg protein (BCA), Sigma Aldrich) was diluted in 20 mM HEPES buffer pH 8, 0.1% Triton X-100 such as to have enzyme solution with 0.25 unit/mL enzyme activity. In the procedure, 100 μL of 0.3 mM DTNB dissolved in phosphate buffer pH 7.4 was added into the 96-well plate followed by 50 μL of test compound solution and 50 μL of enzyme (0.05 U final). After 5 min of preincubation at 25°C, the reaction was then initiated by the injection of 50 μL of 10 mM acetylthiocholine iodide solution. […] Assays were performed with a blank containing all components except acetylthiocholine, in order to account for non-enzymatic reaction. The reaction slopes were compared and the percent inhibition due to the presence of test compounds was calculated by the following expression: 100 − (vi/v0 × 100) where vi is the rate calculated in the presence of inhibitor and v0 is the enzyme activity.

[6] = biological target: T4, Human 5-HT4R (Homo sapiens, UniProt Q13639); experiment: [3H]-GR113808 competition binding on 5-HT4(b) membrane preparations; details: (h)5-HT4R Ki, n = 3; Ki ± SD
T4 construct: purchased Eurofins HTS110M
T4 sequence (Q13639 whole entry): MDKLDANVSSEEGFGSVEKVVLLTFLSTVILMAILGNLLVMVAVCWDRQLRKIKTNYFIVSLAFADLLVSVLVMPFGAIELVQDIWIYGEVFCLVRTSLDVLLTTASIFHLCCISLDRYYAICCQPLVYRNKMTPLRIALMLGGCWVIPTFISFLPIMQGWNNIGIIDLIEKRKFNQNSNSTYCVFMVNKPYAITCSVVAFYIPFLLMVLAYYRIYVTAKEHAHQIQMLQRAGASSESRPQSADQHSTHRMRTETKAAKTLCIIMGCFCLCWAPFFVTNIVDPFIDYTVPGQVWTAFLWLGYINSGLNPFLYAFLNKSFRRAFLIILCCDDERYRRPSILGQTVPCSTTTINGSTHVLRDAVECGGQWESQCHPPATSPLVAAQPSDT
Method: At the end of the incubation, homogenates were filtered through Whatman GF/C filters (Alpha Biotech) presoaked with 0.5% polyethylenimine using a Brandel cell harvester. Filters were subsequently washed three times with 1 mL of ice-cold 25 mM Tris buffer (pH 7.4, 4°C). Non-specific binding was evaluated in parallel in the presence of 30 μM serotonin.
as §4

[7] = biological target: T5, (h)5-HT4(a)R (Homo sapiens, UniProt Q13639); experiment: 5-HT4R-induced cAMP production in transfected COS-7 cells; assay type: cell-based
T5 construct: HA; expressed in transfected cells; host or cells: COS-7 cells, transient electroporation
T5 sequence (Q13639 1-387 isoform Q13639-2): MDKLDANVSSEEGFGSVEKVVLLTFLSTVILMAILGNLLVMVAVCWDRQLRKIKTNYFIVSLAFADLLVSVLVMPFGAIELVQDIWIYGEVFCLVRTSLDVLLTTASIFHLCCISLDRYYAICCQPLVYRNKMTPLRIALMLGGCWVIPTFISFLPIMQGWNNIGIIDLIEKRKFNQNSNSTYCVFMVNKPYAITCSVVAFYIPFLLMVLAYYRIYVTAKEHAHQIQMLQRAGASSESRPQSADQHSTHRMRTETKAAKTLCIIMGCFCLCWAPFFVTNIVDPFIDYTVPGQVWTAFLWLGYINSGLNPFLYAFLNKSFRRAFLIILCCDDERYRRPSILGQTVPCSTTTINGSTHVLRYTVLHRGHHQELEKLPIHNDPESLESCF
Method: as §5
After 10 min, cells were then lysed by addition of the same volume of Triton-X100 (0.1%).
as §6

[8] = CNS-activity and acute toxicity test; details: male, NMRI, mouse, in vivo, ip
Method: as §1, §2, §3

[9] = tested on: mice; experiment: Locomotor activity (actimeter); assay type: in vivo; details: IP 30 min before test, 1, 3 and 10 mg/kg, 30 min recording
Method: as §1, §3

[10] = tested on: mice; experiment: Spatial working memory: scopolamine-induced deficit of spontaneous alternation in the Y maze; assay type: in vivo, NMRI mice; details: IP 30 min before test, 0.3, 1, 3 mg/kg, scopolamine 0.5 mg/kg SC, effect at doses starting from 0.3 mg/kg
Method: as §1
An arm entry was scored when all four feet crossed into the arm. An alternation was defined as entries into all three arms on a consecutive occasion.
as §3

SMILES: C[C@H](N)Cc1ccccc1 [Amphetamine, (+)-α-Methylphenethylamine hemisulfate]
- Symptoms (subtoxic doses) ([1]; 2 mg/kg, stimulant reference): Hyperactivity; also recorded: Exopthalmy; also recorded: Irritability

SMILES: CN(C)CCCN1c2ccccc2Sc2ccc(Cl)cc21 [Chlorpromazine, chlorpromazine hydrochloride]
- Symptoms (subtoxic doses) ([1]; 10 mg/kg, depressive reference): Hypoactivity; also recorded: Ataxia; also recorded: Sleep

SMILES: Fc1ccc2c(CCNCc3cccc(OCC(F)(F)C(F)F)c3)c[nH]c2c1 [compound 2, idalopirdine, reference compound]
- inhibition ([2]; read-out: (h)5-HT6R % inhibition at 10^−8M, 10^−8M, 2.5 nM [3H]-LSD): 88%
- (h)5-HT6R % control antagonist response [3]: 101.2 ± 3.2 n = 2%
- cAMP production in the absence of agonist (inverse agonist activity) [4]: decreased cAMP production below the basal
- (h)5-HT6R Profile [4]: Inverse agonist

SMILES: COc1cc(N)c(Cl)cc1C(=O)CCC1CCN(Cc2cccc(C)c2)CC1.O=C(O)/C=C/C(=O)O [compound 10, 1-(4-Amino-5-chloro-2-methoxyphenyl)-3-(1-(3-methylbenzyl)piperidin-4-yl)propan-1-one fumaric acid salt]
- IC50 [5]: 0.0337 ± 0.0017 µM
- Ki ([2]; (h)5-HT6R Ki, n = 3, Ki ± SD): 0.219 ± 0.042 µM
- Ki [6]: 0.21 ± 0.043 µM
- IC50 [3]: 10 µM
- (h)5-HT6R % control antagonist response [3]: 93.4 ± 1.8 n = 2%
- cAMP production in the absence of agonist (inverse agonist activity) [4]: decreased cAMP production below the basal
- (h)5-HT6R Profile [4]: Inverse agonist
- EC50 [7]: 0.02 µM
- (h)5-HT4(a)R % control agonist response ([7]; 5-HT as control 5-HT4R agonist, n = 2): 59.8 ± 2.5 n = 2%
- (h)5-HT4(a)R Profile ([7]; cAMP, COS-7 cells): Partial agonist
- LD50 at 24 h [8]: > 100 mg/kg
- Symptoms (subtoxic doses) ([1]; 1–10–100 mg/kg): did not show any deleterious signs; also recorded: No symptoms
- Effect on spontaneous locomotor activity [9]: did neither modify spontaneous locomotor activity
- Effect on scopolamine-induced spontaneous alternation deficit [10]: anti-amnesic effect was observed
